In patent US11213536B2, “Acylated compounds for the treatment of ocular pathologies” (CONSEJO SUPERIOR DE INVESTIGACIONES CIENTÍFICAS, priority 2016, dated 2022):
“Also recorded” adds a separate entry of the source.

Key:
rd10 mouse = test: rd10 mice retinal degeneration model, subretinal injection; assay type: in vivo; details: 5 mM subretinal
From the text: The rd10 mouse is a model of retinitis pigmentosa due to a mutation in the Pde6b gene that results in the degeneration of the photoreceptors that begins on postnatal day 15-16 (P15-16) and is completed within one month (P30). In this model, the degeneration begins in the rods and then continues with cones and finally the retinal pigment epithelium (RPE). The degeneration in this model occurs as a consequence of the loss of the function of Pde6b, which ultimately leads to a continuous entry of Ca^++ in the […] with a significant production of reactive oxygen species (ROS), infiltration of macrophages, and activation of pro-apoptotic proteins. At the histological level, a loss of nuclei is observed in the outer nuclear layer of the retina (the layer in which photoreceptor nuclei are located), as well as the loss of the specific markers of rods (rhodopsin) and cones (opsin). The electroretinogram (ERG), which measures the electrical response of the retina to visual stimuli, is markedly affected in rd10 mice, with progressive loss of the amplitude of the a- and b-waves of the ERG. […] To evaluate the protective effect of our compounds on the retina, we first used the rd10 model. Rd10 homozygous mice were injected in the subretinal space at P13 (two to three days before the onset of degeneration) with 1 μl of vehicle (5% DMSO in PBS) or resveratrol RES (5 mM), as well as compound 2 (5 mM). Then, 15 days after having been injected, fundus, ERG, and histological changes were evaluated in the untreated mice, those treated with the vehicle, and those treated with RES and compound 2. […] The ERG in the treated mice was also evaluated 15 days after the injections. The amplitude of the a- and b-waves in the ERGs were quantified, and the statistical analysis was performed using two-way ANOVA and post hoc DMS. A value of p<0.05 was considered significant. […] Finally, the immunofluorescence study was performed in order to observe the presence of markers of rods (rhodopsin) and cones (opsin) (FIG. 10). The number of photoreceptor nuclei present in the outer nuclear layer (ONL), as well as the immunostaining of rhodopsin, was much greater in rd10 mice treated with compound 2 than in those treated with RES and in the controls.

[1] = tested on: SH-SY5Y neuroblastoma cell line; test: Neuroprotection assay: SH-SY5Y viability (MTT) after H2O2 damage; assay type: cell-based; details: H2O2 100 μM, RES 10 μM, MTT 24 h
Protocol: The SH-SY5Y neuroblastoma cell line was cultured in petri dishes pre-treated with collagen (100 μg/ml) with F12 medium supplemented with penicillin/streptomycin and 10% inactivated fetal bovine serum.
(§1) Cell viability assays with neurons were prepared in 96-well plates pre-treated with collagen by seeding 20,000 cells/well in a volume of 100 μl and incubating the cells for 24 h before the addition of the compounds. The compounds to be tested were dissolved in DMSO and added in three different concentrations (1, 10 and 100 μM) in order to determine their toxicity. The final percentage of DMSO in each well was adjusted to 1%. The cell viability was evaluated 24 h after the addition of the compounds by means of the MTT assay according to the manufacturer's method. Mean values and standard deviations were calculated from at least 8 different measurements from several independent experiments.
Neuroprotection assays. […] The cell viability was evaluated 24 h after the addition of the compounds by means of the MTT assay according to the manufacturer's method. Mean values and standard deviations were calculated from at least 8 different measurements from several independent experiments. Neuronal recovery was calculated by normalizing the results of the neuronal viability experiments after the addition of our compounds and H2O2 to the positive control of each experiment (neurons+H2O2).

RAW 264.7 macrophages = test: Mitigation of LPS damage: RAW 264.7 macrophage viability (MTT); assay type: cell-based; details: LPS 100 ng/ml, RES 10 μM, MTT 24 h
Protocol: RAW 264.7 macrophages were cultured in P75 with high-glucose DMEm supplemented with penicillin/streptomycin and 10% inactivated fetal bovine serum.
as §1, with “The cell viability” for “Cell viability”, “with RAW macrophages” for “with neurons”, “plates” for “plates pre-treated with collagen”, “seeding 25,000” for “seeding 20,000”, “for 4” for “for 24”
Testing of mitigation of damage caused by the addition of LPS. The RAW 264.7 macrophages were cultured according to the procedure described above. […] The cell viability was evaluated 24 h after the addition of the compounds by means of the MTT assay according to the manufacturer's method. Mean values and standard deviations were calculated from at least 8 different measurements from several independent experiments.

CCCCCCCC(=O)OCC1OC(Oc2cc(O)cc(/C=C/c3ccc(O)cc3)c2)C(O)C(O)C1O [Compound 2, trans-resveratrol-3-O-(6′-O-octanoyl)-β-D-glucopyranoside]
amplitude of the a- and b-waves in ERG (rd10 mouse; 15 days): preserved in the group treated with compound 2 in a greater proportion | thickness of the outer nuclear layer (ONL) (rd10 mouse; 15 days): greater than in the group treated with RES | pigment accumulation in the fundus (rd10 mouse; 15 days after injection): absence of pigment; also recorded: lower amount of pigment accumulation | b-wave amplitude in dark-adapted ERG (rd10 mouse; 15 days, flash intensities 0.2, 1, 3 and 10 cd s/m^2): significantly increased; also recorded: significant increase | labeling of rhodopsin and opsin (rd10 mouse; 15 days, immunofluorescence): more intense | number of photoreceptor nuclei in the outer nuclear layer (ONL) and immunostaining of rhodopsin (rd10 mouse; 15 days, immunofluorescence): much greater

Oc1ccc(C=Cc2cc(O)cc(O)c2)cc1 [RES, resveratrol, reference compound]
recovery of cell viability [1]: up to 50% | recovery of cell viability (RAW 264.7 macrophages): up to 82%
